Measured values reported in ChEMBL document CHEMBL3085661, “Fragment-based approach to the design of 5-chlorouracil-linked-pyrazolo[1,5-a][1,3,5]triazines as thymidine phosphorylase inhibitors” (Eur J Med Chem, 2013).
Where a name gives a salt, the structure may show the parent alone.

Tests used:
Thymidine phosphorylase [1] = target: T1, Thymidine phosphorylase (Escherichia coli K-12, UniProt P07650); assay: Inhibition of Escherichia coli recombinant thymidine phosphorylase using thymidine as substrate after 4 to 20 mins by UV spectrophotometry
T1 sequence (P07650 whole entry): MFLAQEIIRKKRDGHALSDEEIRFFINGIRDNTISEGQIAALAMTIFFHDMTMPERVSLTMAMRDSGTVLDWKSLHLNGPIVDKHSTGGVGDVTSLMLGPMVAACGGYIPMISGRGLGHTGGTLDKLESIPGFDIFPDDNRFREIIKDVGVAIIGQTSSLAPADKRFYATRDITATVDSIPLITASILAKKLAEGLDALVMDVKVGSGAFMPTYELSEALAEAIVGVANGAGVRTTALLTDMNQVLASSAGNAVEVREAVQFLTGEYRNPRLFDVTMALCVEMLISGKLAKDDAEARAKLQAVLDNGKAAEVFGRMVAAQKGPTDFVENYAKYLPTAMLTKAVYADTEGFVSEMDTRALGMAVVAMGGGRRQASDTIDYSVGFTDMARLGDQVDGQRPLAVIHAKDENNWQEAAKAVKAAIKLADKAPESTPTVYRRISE

[2] = Cytotoxicity against human MDA-MB-231 cells assessed as cell viability at 100 uM by MTT assay relative to control; format: cell-based; conditions: read-out: Activity
Thymidine phosphorylase [3] = target: T1, Thymidine phosphorylase; assay: Mixed-type inhibition of Escherichia coli recombinant thymidine phosphorylase using thymidine as substrate by Lineweaver-Burk plot analysis
Thymidine phosphorylase [4] = target: T1, Thymidine phosphorylase; assay: Noncompetitive inhibition of GST-tagged Escherichia coli recombinant thymidine phosphorylase expressed in Escherichia coli using thymidine as substrate after 20 to 60 mins by HPLC analysis

Row | Structure (SMILES) | IC50 (Thymidine phosphorylase [1]) | also measured
1 | CC(C)(C)c1ccc(-c2cnn3c(=O)[nH]c(SCc4[nH]c(=O)[nH]c(=O)c4Cl)nc23)cc1 | 1.8 µM | 
2 | COc1ccc(-c2cnn3c(=O)[nH]c(SCc4[nH]c(=O)[nH]c(=O)c4Cl)nc23)cc1 | 21.3 µM | 
3 | CCOc1ccc(-c2cnn3c(=O)[nH]c(SCc4[nH]c(=O)[nH]c(=O)c4Cl)nc23)cc1 | 12 µM | 
4 | O=c1[nH]c(CSc2nc3c(-c4ccc(I)cc4)cnn3c(=O)[nH]2)c(Cl)c(=O)[nH]1 | 0.61 µM | 
5 | O=c1[nH]c(CSc2nc3c(-c4ccc(S(F)(F)(F)(F)F)cc4)cnn3c(=O)[nH]2)c(Cl)c(=O)[nH]1 | 0.36 µM | viability at 100 µM [2]: 67%; Ki (Thymidine phosphorylase [3]): 0.44 µM
6 | O=c1[nH]c(CSc2nc3cc(-c4ccc(C(F)(F)F)cc4)nn3c(=O)[nH]2)c(Cl)c(=O)[nH]1 | 2.1 µM | 
7 | Cc1ccc(-c2cc3nc(SCc4[nH]c(=O)[nH]c(=O)c4Cl)[nH]c(=O)n3n2)cc1 | 9.8 µM | 
8 | CC(C)(C)c1ccc(-c2cc3nc(SCc4[nH]c(=O)[nH]c(=O)c4Cl)[nH]c(=O)n3n2)cc1 | 1.5 µM | 
9 | COc1ccc(-c2cc3nc(SCc4[nH]c(=O)[nH]c(=O)c4Cl)[nH]c(=O)n3n2)cc1 | 11.8 µM | 
10 | CCOc1ccc(-c2cc3nc(SCc4[nH]c(=O)[nH]c(=O)c4Cl)[nH]c(=O)n3n2)cc1 | 10 µM | 
11 | O=c1[nH]c(CSc2nc3cc(-c4ccccc4)nn3c(=O)[nH]2)c(Cl)c(=O)[nH]1 | 13 µM | 
12 | Cc1cnn2c(=O)[nH]c(SCc3[nH]c(=O)[nH]c(=O)c3Cl)nc12 | 35.3 µM | 
13 | O=c1[nH]c(CSc2nc3c(Cl)cnn3c(=O)[nH]2)c(Cl)c(=O)[nH]1 | 49.8 µM | 
14 | O=c1[nH]c(CSc2nc3c(Br)cnn3c(=O)[nH]2)c(Cl)c(=O)[nH]1 | 40 µM | 
15 | O=c1[nH]c(CSc2nc3c(I)cnn3c(=O)[nH]2)c(Cl)c(=O)[nH]1 | 30.8 µM | 
16 | N#Cc1cnn2c(=O)[nH]c(SCc3[nH]c(=O)[nH]c(=O)c3Cl)nc12 | 38.8 µM | 
17 | CCOC(=O)c1cnn2c(=O)[nH]c(SCc3[nH]c(=O)[nH]c(=O)c3Cl)nc12 | 47.2 µM | 
18 | O=c1[nH]c(CSc2nc3c(-c4ccccc4)cnn3c(=O)[nH]2)c(Cl)c(=O)[nH]1 | 9.7 µM | 

Row | Structure (SMILES) | IC50 (Thymidine phosphorylase [1]) | also measured
19 | O=c1[nH]c(CSc2nc3c(-c4ccc(F)cc4)cnn3c(=O)[nH]2)c(Cl)c(=O)[nH]1 | 8 µM | 
20 | O=c1[nH]c(CSc2nc3c(-c4ccc(Cl)cc4)cnn3c(=O)[nH]2)c(Cl)c(=O)[nH]1 | 2.8 µM | 
21 | O=c1[nH]c(CSc2nc3c(-c4ccc(Br)cc4)cnn3c(=O)[nH]2)c(Cl)c(=O)[nH]1 | 1.2 µM | 
22 | O=c1[nH]c(CSc2nc3c(-c4ccc(C(F)(F)F)cc4)cnn3c(=O)[nH]2)c(Cl)c(=O)[nH]1 | 1.3 µM | 
23 | Cc1ccc(-c2cnn3c(=O)[nH]c(SCc4[nH]c(=O)[nH]c(=O)c4Cl)nc23)cc1 | 7.3 µM | 
24 | CCOc1ccc(-c2cc3[nH]c(=S)[nH]c(=O)n3n2)cc1 | 6.1 µM | 
25 | N#Cc1cnn2c(=O)[nH]c(=S)[nH]c12 | > 100 µM | 
26 | CCOC(=O)c1cnn2c(=O)[nH]c(=S)[nH]c12 | > 100 µM | 
27 | O=c1[nH]c(CSc2nc3ccnn3c(=O)[nH]2)c(Cl)c(=O)[nH]1 | 67.8 µM | 
28 | Cc1cc2nc(SCc3[nH]c(=O)[nH]c(=O)c3Cl)[nH]c(=O)n2n1 | 55.5 µM | 
29 | CC(C)(C)c1cc2nc(SCc3[nH]c(=O)[nH]c(=O)c3Cl)[nH]c(=O)n2n1 | 51.2 µM | 
30 | O=c1[nH]c(CSc2nc3cc(C(F)(F)F)nn3c(=O)[nH]2)c(Cl)c(=O)[nH]1 | 31 µM | 
31 | O=c1[nH]c(CSc2nc3cc(-c4ccc(F)cc4)nn3c(=O)[nH]2)c(Cl)c(=O)[nH]1 | 22.6 µM | 
32 | O=c1[nH]c(CSc2nc3cc(-c4ccc(Cl)cc4)nn3c(=O)[nH]2)c(Cl)c(=O)[nH]1 | 10.3 µM | 
33 | O=c1[nH]c(CSc2nc3cc(-c4ccc(Br)cc4)nn3c(=O)[nH]2)c(Cl)c(=O)[nH]1 | 6.2 µM | 
34 | Oc1ncnc2c1ncn2[C@@H]1O[C@H](COC(c2ccccc2)(c2ccccc2)c2ccccc2)[C@@H](O)[C@H]1O |  | IC50 (Thymidine phosphorylase [4]): 44 µM
35 | N=C1CCCN1Cc1[nH]c(=O)[nH]c(=O)c1Cl [TIPIRACIL HYDROCHLORIDE] | 0.0027 µM | 
